From PMC7932555, “A diffusible signal factor of the intestine dictates Salmonella invasion through its direct control of the virulence activator HilD” (PLoS Pathogens, 2021)

Tested on: sipB::lacZY
Experiment: sipB::lacZY reporter β-galactosidase assay in strains expressing wild type or mutant HilD
Assay type: cell-based
Conditions: 20 μM fatty acid (mix: 20 μM of each)
Text: To test the effect of mutations in hilD, we initially constructed a background Salmonella strain without chromosomal hilC, rtsA and hilD and fused sipB to lacZY to assess SPI-1 expression. hilD with a C-terminal 3XFLAG tag was cloned into pWSK29 under control of the tetRA promoter for tetracycline-inducible expression. This plasmid was subjected to site-directed mutagenesis at specific nucleotides to change selected amino acids to alanine, using the Agilent QuikChange II Site-Directed Mutagenesis kit following their protocol. Mutations were confirmed by DNA sequencing.
Salmonella strains were inoculated into LB buffered with 100 mM MOPS [3-(N-morpholino) propanesulphonic acid] pH 6.7, with necessary antibiotics, and fatty acids or control solvents to be tested. Cultures were incubated at 37° C without aeration overnight, and assays were performed using an established protocol.

[1] = strain expressing wild type HilD

| Compound | repression of sipB expression (strain expressing HilD K293A) | repression of sipB expression (strain expressing HilD K294A) | repression of sipB expression [1] [fold] | repression of sipB expression (strain expressing HilD K43A) | repression of sipB expression (strain expressing HilD Q290A) |
| --- | --- | --- | --- | --- | --- |
| CCCCCCCCC/C=C\C(=O)O [c2-DDA, cis-2-dodecenoic acid] | no significant reduction | no significant reduction | 4.1 | – | – |
| CCCCCCCCCCC/C=C\CCCCCCC(=O)O [c8-EA, cis-8-eicosenoic acid] | continued to repress sipB expression | continued to repress sipB expression | – | – | – |
| CCCCCCCC/C=C\CCCCCCCC(=O)O [oleic acid, cis-9-octadecenoic acid] | continued to repress sipB expression | continued to repress sipB expression | 3.7 | no longer had a repressive effect | no longer had a repressive effect |
